The subject of assay [1] is A549. In words: Induction of cell cycle arrest in human A549 cells assessed as accumulation at G1 phase incubated for 24 hrs by PI staining based flow cytometry. Type of assay: functional.
For assay [2], the system named is A549. As to the kind of experiment: Induction of cell cycle arrest in human A549 cells assessed as accumulation at sub G1 phase incubated for 24 hrs by PI staining based flow cytometry. Type of assay: functional.
Assay [3] relates to A549. In words: Induction of replication stress in human A549 cells increase in micronuclei at 1 uM by DAPI staining based fluorescent microscopic analysis. Type of assay: functional, cell-based.
Assay [4] relates to A549. In words: Induction of replication stress in human A549 cells increase in 53BP1 bodies at 1 uM by DAPI staining based fluorescent microscopic analysis. Type of assay: functional, cell-based.
Assay [5] concerns the target T1, Lysine-specific demethylase 4E (Homo sapiens, UniProt B2RXH2).
T1 sequence (B2RXH2 whole entry): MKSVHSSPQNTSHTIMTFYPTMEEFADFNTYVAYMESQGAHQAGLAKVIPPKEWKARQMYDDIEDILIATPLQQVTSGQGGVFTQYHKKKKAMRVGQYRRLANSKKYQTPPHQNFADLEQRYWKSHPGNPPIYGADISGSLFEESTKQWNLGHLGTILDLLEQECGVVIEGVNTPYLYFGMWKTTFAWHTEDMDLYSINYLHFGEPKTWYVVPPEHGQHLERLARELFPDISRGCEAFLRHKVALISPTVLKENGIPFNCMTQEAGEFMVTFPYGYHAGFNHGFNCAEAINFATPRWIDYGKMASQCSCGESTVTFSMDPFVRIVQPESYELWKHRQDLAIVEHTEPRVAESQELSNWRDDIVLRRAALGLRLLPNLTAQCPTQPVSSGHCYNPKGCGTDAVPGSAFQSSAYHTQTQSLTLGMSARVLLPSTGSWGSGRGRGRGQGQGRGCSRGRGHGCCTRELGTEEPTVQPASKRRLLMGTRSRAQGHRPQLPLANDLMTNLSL
In words: Inhibition of KDM4E (unknown origin) by SPE-MS analysis.

The target of assay [6] is Bifunctional peptidase and arginyl-hydroxylase JMJD5 (Homo sapiens, UniProt Q8N371). In words: Inhibition of N-terminal his6-tagged-thioredoxin-tagged human recombinant JMJD5 expressed in Escherichia coli using RPS6 as substrate by SPE-MS analysis.
A short description of assay [7]: Inhibition of N-terminal his6-tagged FIH (unknown origin) expressed in Escherichia coli using HIF-alpha CAD (788 to 822 residues) expressed in Escherichia coli by SPE-MS analysis. On the set-up: species or system Homo sapiens.
Assay [8] concerns the target T1, Lysine-specific demethylase 4E. In words: Inhibition of KDM4E (unknown origin) by FDH-coupled spectrophotometric turnover assay.

pIC50: −log10 of the molar value. Active and inactive are the calls of the source. The rule behind the calls is not given here.

Bifunctional peptidase and arginyl-hydroxylase JMJD5, sequence (Q8N371 whole entry, the tested form may be a part): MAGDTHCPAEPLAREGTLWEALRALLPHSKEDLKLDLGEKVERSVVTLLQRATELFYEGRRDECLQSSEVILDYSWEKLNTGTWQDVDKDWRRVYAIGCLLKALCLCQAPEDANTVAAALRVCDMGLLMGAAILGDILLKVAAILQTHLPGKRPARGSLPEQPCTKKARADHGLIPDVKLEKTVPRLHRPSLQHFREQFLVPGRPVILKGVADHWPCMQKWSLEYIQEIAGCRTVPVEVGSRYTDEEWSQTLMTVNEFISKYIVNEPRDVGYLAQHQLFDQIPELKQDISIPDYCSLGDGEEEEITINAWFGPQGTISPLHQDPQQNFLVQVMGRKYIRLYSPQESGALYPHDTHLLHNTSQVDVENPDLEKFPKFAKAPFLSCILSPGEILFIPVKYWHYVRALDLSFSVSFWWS

In the case of `COC(=O)c1cc(C(=O)OC)c(NCc2ccccc2C2CC2)cn1`, the result with A549 [1], with A549 [2], in the assay on A549 [3] and with A549 [4] was Active.
Consider `O=C(O)c1cc(C(=O)O)c(C(F)(F)F)cn1`, for which the IC50 entry in assay [5] is recorded as “Not Active”.
In the case of `COc1ccccc1CNc1cnc(C(=O)O)cc1C(=O)O`, in assay [6], the pIC50 is 6.15.
As for `COC(=O)c1cc(C(=O)OC)c(NCc2ccccc2OC)cn1`, the outcome in the assay on A549 [1], in the assay on A549 [2], in the assay with A549 [3] and with A549 [4] was Active.
In assay [7], `O=C(O)c1cc(C(=O)O)c(NCc2ccccc2C2CC2)cn1` gave a pIC50 of less than 4.30.
`O=C(O)c1ccnc(C(=O)O)c1Nc1ccccc1[N+](=O)[O-]` showed a pIC50 in assay [8] of 4.25.
As to `O=C(O)c1ccnc(C(=O)O)c1C(F)(F)F`, in assay [5], the IC50 result is on record as “Not Active”.

For the origin of these results see ChEMBL document CHEMBL5360635 (J Med Chem, 2023).
